We go through 1 molecule from ChEMBL document CHEMBL1147381, “Two new cytotoxic chalcones from Calythropsis aurea” (J Nat Prod, 1993).

pIC50: −log10 of the molar value.

The nature of assay [1]: Cytotoxicity against human NCI60 cells after 2 days by XTT assay. It is filed as functional. As to conditions: NCI60, 48 h.
The test system of another assay is L1210. Kind of assay: Cytotoxicity against mouse L1210 cells after 24 hrs. The format is functional, cell-based. As to conditions: L1210, 24 h.

Broadly, the GI50 is the concentration at which growth is held to half of that of the control. Low values mean more potent growth inhibition, high ones less potent growth inhibition. As a reminder, the TGI is the concentration at which net growth stops. A lower TGI goes with more potent growth arrest. A word on the pIC50: it is the negative decadic logarithm of the IC50, by convention in mol/L. Consider `COc1ccc(C(=O)/C=C/c2ccc(O)c(O)c2)c(O)c1` [CALYTHROPSIN], for which, in assay [1], growth was halved (GI50) at 660 nM and the concentration for total growth inhibition (TGI) worked out at 19.7 µM. The CC50 in assay [1] (read-out: LC50 (the source's name)) is more than 50 µM. The pIC50 in the assay on L1210 is 5.15.
